In patent publication US20040067991A1, “Tetrahydrobenzothiazole analogues as neuroprotective agents” (priority 2003, published 2004):
Entries after “also recorded” stand apart in the source; their conditions may differ. Where a name gives a salt, the structure may show the parent alone. Read-outs that look alike come from different tables or passages of the source.

Tests used:
PC12 cells = test: Protection of PC12 cells against camptothecin-induced cell death (BCECF AM fluorescence); format: cell-based
Procedure: The 2-amino-4,5,6,7-tetrahydrobenzothiazole hydrogen iodide, 1-(4-methylphenyl)-2-(4,5,6,7-tetrahydro-2-imino-3(2H)-benzothiazolyl)-ethanone hydrobromide, and analogues were tested for their ability to protect PC12 cells against the toxic agent, camptothecin. PC12 cells were cultured in RPMI1640 media containing 10% horse serum and 5% fetal calf serum (37° C., pH 7.4) until confluent. Thereafter, 2.2×10^4 cells per mL were added to each trough of a 96 well plate (approximately 6,270 cells per well 285 μL) and were left to grow for 12 h. The media then was removed and was replaced by media with and without the compounds to be tested, including precursor, PFTα, and numerous analogues (concentration 100-400 nM, prepared in DMSO to a final dilution of 0.4%, 8 wells per concentration). Following 6 h of incubation, camptothecin (40 μM) was added to 4 of each 8 wells, and the cells were incubated for a further 24 h. Cells then were gently washed twice with phosphate buffered saline (PBS: 0.1 M, 37° C., pH 7.4) and were incubated in PBS containing the live-cell indicator dye, 2′,7′-bis(2-carboxyethey)-5-6-carboxyfluorescein AM ester (BCECF AM: 5 μM) (Molecular Probes, CA), for 45 min in minimal light. This fluorescent dye was taken up and retained by live cells. Finally, the cells were washed twice in PBS and their fluorescence then was quantified (excitation: 490 nm, emission: 535 nm, Perkin Elmer HTS 7000).
PC12 cell survival was also assessed. One hundred percent cell survival was determined from cells incubated in the absence of both any compound and camptothecin. […] Compound-induced toxicity was assessed by comparing cells treated with compound at various concentrations in the absence of camptothecin with cells incubated in the absence of both compound and camptothecin. […] Compound-induced cellular protection was assessed by comparing cells incubated with camptothecin with cells incubated with camptothecin in the presence of compound, in a concentration-dependent manner.

rat hippocampal neurons = test: Neuronal survival assay in cultured hippocampal neurons treated with camptothecin or etoposide; format: cell-based; details: for neuroprotection of hippocampal neurons against camptothecin (in words): 100 nM, added 1 h before camptothecin 5 μM; for neuroprotection of hippocampal neurons against etoposide (in words): added 1 h before etoposide 2.5 μM; for protection of primary hippocampal cells against death induced by camptothecin and etoposide (in words): camptothecin 5 μM, etoposide 2.5 μM; for protection of primary hippocampal cells against death induced by camptothecin and etoposide (in words) / neuronal survival: 24 h; for neuronal survival: pretreated with 100 nM of analogue, then camptothecin (5 μM)
Procedure: 2-amino-4,5,6,7-tetrahydrobenzothiazole hydrogen and 1-(4-methylphenyl)-2-(4,5,6,7-tetrahydro-2-imino-3(2H)-benzothiazolyl)-ethanone hydrobromide and their analogues were assessed for their ability to protect rat hippocampal cells in culture from camptothecin ([…]).
Dissociated hippocampal cell cultures were established from embryonic day 18 Sprague-Dawley rats (Harlan, Inc.) as described previously. […] 77:220-28. Cells were grown in polyethyleneimine-coated plastic dishes or 22 m^2 glass coverslips, and incubated in Neurobasal medium containing B27 supplements, 2 mM L-glutamine, 25 mg/ml gentamycin, 1 mM Hepes (Gibco BRL) and 0.001% gentamicin sulfate. All experiments were performed using 9-10 day-old cultures. Camptothecin and etoposide (Signia) were prepared as 500× stocks in DMSO. Neuron survival was quantified by established methods. […] Briefly, viable neurons in premarked fields (10× objective) were counted before experimental treatment and at specified time points thereafter. Neurons with intact neurites of uniform diameter and soma with a smooth round appearance were considered viable. In contrast neurons with fragmented neurites and vacuolated soma were considered non-viable.

[1] = system: primary hippocampal neurons; test: Neuronal survival of primary hippocampal neurons after excitotoxic insult (glutamate); format: cell-based, rat; details: for protection of hippocampal neurons against glutamate-induced death (in words): 0.04 μM 1 h before glutamate (20 μM), survival at 24 h; for neuron survival increased: neurons pretreated with compound, death induced by glutamate
Procedure: Dissociated hippocampal cell cultures were established from embryonic day 18 Sprague-Dawley rats (Harlan, Inc.) as described previously. See Culmsee et al. (2001) J. Neurochem. 77:220-28. Cells were grown in polyethyleneimine-coated plastic dishes or 22 m^2 glass coverslips, and incubated in Neurobasal medium containing B27 supplements, 2 mM L-glutamine, 25 mg/ml gentamycin, 1 mM Hepes (Gibco BRL) and 0.001% gentamicin sulfate. All experiments were performed using 9-10 day-old cultures. Camptothecin and etoposide (Signia) were prepared as 500× stocks in DMSO. Neuron survival was quantified by established methods. See Mattson et al. (1993) Neuron 10:243-54. Briefly, viable neurons in premarked fields (10× objective) were counted before experimental treatment and at specified time points thereafter. Neurons with intact neurites of uniform diameter and soma with a smooth round appearance were considered viable. In contrast neurons with fragmented neurites and vacuolated soma were considered non-viable.
Primary hippocampal neurons were prepared and cultured as described above. Cultures were pretreated with compounds 14 and 1 (0.04 μM) 1 h before exposure to glutamate (20 μM) in Locke's medium. The percentage of neuronal survival 24 h after the onset of insult is given as mean values±SD.

caspase activation = test: Caspase activation; format: cell-based
C57BL/6 mice given MPTP [2] = test: MPTP-induced Parkinson's disease model: rotarod behavioral tests; format: in vivo, mouse; details: 2 mg/kg i.p. 30 min before first and 30 min after last MPTP injection; day 7
Procedure: (§1) The ability of PFTα (5) and compounds 5× (Z-1-117) and 13 (Z-1-143) to protect dopaminergic neurons against MPTP toxicity was tested. MPTP (20 mg/kg) was administered intraperitoneally to 2 month-old male C57BL/6 mice by four injections at two hour intervals to induce dopaminergic cell death.
At seven days, behavioral tests were performed using the rotarod test equipment. The number of falls and running times were measured.

[3] = system: striatal tyrosine hydroxylase (TH); test: MPTP model: striatal tyrosine hydroxylase levels by Western blot densitometry; format: in vivo, mouse; details: 2 mg/kg, 7 days later, hydrobromide
Procedure: as §1
Levels of tyrosine hydroxylase (TH), the enzyme that catalyzes the rate-limiting step in dopamine synthesis, also were assessed in the striatum using Western blot analysis.

[4] = system: substantia nigra dopaminergic neurons; test: MPTP model: TH-immunostained cells in the substantia nigra; format: in vivo, mouse; details: 2 mg/kg, seven days after treatment, 4 mice/group
Procedure: as §1
In yet another experiment, the number of TH-immunostained cells in the substantia nigra was assessed in four animals seven days after treatment. Mice were euthanized and perfused by 4% paraformadehyde transcardially. Brain sections were cut and immunostained with an antibody against TH. PFT-A and compound 5× attenuated MPTP-induced loss of substantia nigra dopaniinergic neurons.

[5] = system: C57BL/6 mice, middle cerebral artery occlusion; test: Transient focal cerebral ischemia/reperfusion (middle cerebral artery occlusion) stroke model; format: in vivo, mouse
Procedure: Surgery was performed in anesthetized (xylazine 5 mg/kg, chloral hydrate 350 mg/kg) mice (3 month old C57B1/6) in accordance with a protocol approved by the NIH Animal Care and Use Committee. The focal ischemia/reperfusion model has been described previously. See Bruce et al. (1996) Nat. Med. 2:788-94. This method involves occluding the middle cerebral artery for 1 h with a nylon thread, and then removing it to allow reperfusion. During the procedure, mice were maintained at 37° C. and blood gases, flow and pressure were monitored. At 24 h after ischemia, mice were anesthetized, decapitated, and their brains were cut into 2 mm coronal sections, which then were stained with triphenyltetrazolium for 30 min at 37° C. Images of the stained brains were captured by digital camera for quantitative analysis of infarct area and volume.
The infarct volume for vehicle was 40 mm^3. When mice were treated with PFTα, infarct volume was 20 mm^3, a highly significant 50% decrease.

C57BL/6 mice given MPTP [6] = test: MPTP model: striatal dopamine, serotonin and metabolites by HPLC; format: in vivo, mouse; details: striatal tissue
Procedure: as §1
In a separate experiment, levels of striatal dopamine, dopamine metabolites, serotonin, and serotonin metabolites were measured using HPLC analysis. Specifically, mice were euthanatized, and striatal tissue samples were removed and levels of dopamine, DOPAC, HVA, 5-HT, 5-HIAA were quantified. […] There was no significant difference in levels of serotonin or serotonin metabolites.

[7] = read-out: PD50; concentration of compounds required to induce 50% protection (PC50) of PC12 cells from camptothecin-induced cell-death; 6 h preincubation with compound, camptothecin 40 μM for 24 h
[8] = compound 2 mg/kg + MPTP, mean±SE, 4-6 mice/group

In the case of Br.CCC(=O)Cn1c2c(sc1=N)CCCC2 [Compound 1, 1-(4.5,6,7-tertahydro-2-imino-3(2H)-benzothiazolyl)-2-butanone Hydrobromide], the EC50 (PC12 cells; 6 h preincubation with compound, camptothecin 40 μM for 24 h; read-out: PD50; concentration of compounds required to induce 50% protection (PC50) of PC12 cells from camptothecin-induced cell-death) is reported as 571 nM, the “neuroprotection of hippocampal neurons against camptothecin (in words)” value (rat hippocampal neurons) is reported as “significant neuroprotection” and the “neuroprotection of hippocampal neurons against etoposide (in words)” value (“neuroprotection … against etoposide (in words)” below) (rat hippocampal neurons) is reported as “more active than compound PFTα”. The “protection of primary hippocampal cells against death induced by camptothecin and etoposide (in words)” value (“protection of primary hippocampal cells” below) (rat hippocampal neurons; Hydrobromide) was “had neuroprotection; also recorded: highly potency”, the neuronal survival (rat hippocampal neurons) was 65% and the “protection of hippocampal neurons against glutamate-induced death (in words)” value [1] was “protect”. For the same molecule, the neuron survival increased [1] was 39% and the “caspase activation (in words)” value (caspase activation) was “suppress caspase activation”.
Cc1ccc(C(=O)Cn2c3c(sc2=N)CCCC3)cc1 [Compound 5, 1-(4-methylphenyl)-2-(4,5,6,7-tetrahydro-2-imino-3(2H)-benzothiazolyl)-ethanone hydrobromide, reference compound] was tested, and the “neuronal survival of PC12 cells increased” value (PC12 cells; compared to PC12 cells treated with camptothecin in the absence of PFTα) was “up to 70%”, the “protection of PC12 cells against camptothecin-induced death (in words)” value (PC12 cells; compounds 100-400 nM, camptothecin 40 μM 24 h) was “protected” and the EC50 (PC12 cells; [7]) was 252 nM. The “number of falls on rotarod (in words)” value (C57BL/6 mice given MPTP [2]) was “statistically significant decease”, the “running time on rotarod (in words)” value (C57BL/6 mice given MPTP [2]) was “statistically significant increase” and the “MPTP-induced loss of striatal tyrosine hydroxylase (in words)” value ([3]; listed as PFT-a) was “reverse the MPTP reduction in TH levels”. The “MPTP-induced loss of striatal tyrosine hydroxylase (in words)” value ([3]; listed as PFT-alpha) was “attenuate”, the “MPTP-induced loss of substantia nigra dopaminergic neurons, TH-positive cells (in words)” value [4] was “attenuated” and the “brain entry after systemic administration (in words)” value ([5]; 2 mg/kg i.p.) was “entered and acted in the brain”. The “infarct area at four different brain levels (in words)” value ([5]; 2 mg/kg i.p.) was “reduction in the infarct area”, the infarct volume ([5]; 2 mg/kg i.p. before 1 h MCA occlusion, 24 h after ischemia) was 20 mm^3 and the “decrease in infarct volume” value ([5]; 2 mg/kg i.p., versus vehicle (40 mm^3)) was 50%. For the same molecule, the “improved cell survival compared to vehicle controls after pretreatment” value (rat hippocampal neurons; 200 nM pretreatment 1 hour, camptothecin 5 μM or etoposide 2.5 μM) was “improved cell survival”, the “neuroprotection … against etoposide (in words)” value (rat hippocampal neurons) was “had activity” and the “protection of primary hippocampal cells” value (rat hippocampal neurons; listed as PFTα, hydrobromide) was “protects; also recorded: potent activity”. For the same molecule, the “toxicity when administered alone to hippocampal cells” value (rat hippocampal neurons; concentrations up to 400 nM) was “neither PFTα (5) nor its precursor were toxic”, the neuronal survival (rat hippocampal neurons) was 62% and the “levels of dopamine, DOPAC, and HVA as compared to the MPTP-induced reduction (in words)” value (C57BL/6 mice given MPTP [6]; 2 mg/kg) was “statistically significant increase”. The 5-HIAA (C57BL/6 mice given MPTP [6]; [8]) was 245 ± 33 pg/mg tissue weight, the 5-HT (C57BL/6 mice given MPTP [6]; [8]) was 419 ± 20 pg/mg tissue weight and the DOPAC (C57BL/6 mice given MPTP [6]; [8]) was 170 pg/mg tissue weight. The Dopamine (C57BL/6 mice given MPTP [6]; [8]) was 3314 pg/mg tissue weight and the HVA (C57BL/6 mice given MPTP [6]; [8]) was 328 ± 35 pg/mg tissue weight.
With N=c1sc2c(n1Cc1ccccc1)CCCC2 [Compound 14, 3-(phenylmethyl)-4,5,6,7-tetrahydro-2(3H)-benzothiazolimine Hydrobromide] the EC50 (PC12 cells; [7]) was 741 nM, the “neuroprotection of hippocampal neurons against camptothecin (in words)” value (rat hippocampal neurons) was “significant neuroprotection” and the “neuroprotection … against etoposide (in words)” value (rat hippocampal neurons) was “more active than compound PFTα”. For the same molecule, the “protection of primary hippocampal cells” value (rat hippocampal neurons; Hydrobromide) was “had neuroprotection; also recorded: highly potency”, the neuronal survival (rat hippocampal neurons) was 61% and the “protection of hippocampal neurons against glutamate-induced death (in words)” value ([1]; Hydrobromide) was “protect; also recorded: at least partially reversed”. For the same molecule, the neuron survival increased [1] was 133% and the “caspase activation (in words)” value (caspase activation) was “suppress caspase activation”.
